Values of other authors in patent publication US8124123B2, “Controlled release azithromycin solid dosages forms” (Dow Pharmaceutical Sciences, Inc., priority 2007, dated 2012).

Legend:
[1] = oral administration; reported with single 1000 mg dose and 1500 mg over 5 days

## CC[C@H]1OC(=O)[C@H](C)[C@@H](O[C@H]2C[C@@](C)(OC)[C@@H](O)[C@H](C)O2)[C@H](C)[C@@H](O[C@@H]2O[C@H](C)C[C@H](N(C)C)[C@H]2O)[C@](C)(O)C[C@@H](C)CN(C)[C@H](C)[C@@H](O)[C@]1(C)O [azithromycin, 9-deoxo-9a-aza-9a-methyl-9a-homoerythromycin A]
[1]
  gastrointestinal side effects: dose-related incidence of gastrointestinal side effects
About one hour in the stomach, low pH environment
  fraction of azithromycin released into the stomach that may be destroyed: approximately one third
pH found in stomach contents following a meal
  chemical stability at pH 1: chemically unstable
